This note sets out measurements from patent publication US20250034161A1, “SPIROCYCLIC COMPOUND AS KRAS-G12C INHIBITOR” (Shanghai Euregen Biopharma Co., Ltd., priority 2020, published 2025).

The target in one assay is T1, CYP1A2 (Homo sapiens, UniProt P05177).
T1 sequence (P05177 1-516): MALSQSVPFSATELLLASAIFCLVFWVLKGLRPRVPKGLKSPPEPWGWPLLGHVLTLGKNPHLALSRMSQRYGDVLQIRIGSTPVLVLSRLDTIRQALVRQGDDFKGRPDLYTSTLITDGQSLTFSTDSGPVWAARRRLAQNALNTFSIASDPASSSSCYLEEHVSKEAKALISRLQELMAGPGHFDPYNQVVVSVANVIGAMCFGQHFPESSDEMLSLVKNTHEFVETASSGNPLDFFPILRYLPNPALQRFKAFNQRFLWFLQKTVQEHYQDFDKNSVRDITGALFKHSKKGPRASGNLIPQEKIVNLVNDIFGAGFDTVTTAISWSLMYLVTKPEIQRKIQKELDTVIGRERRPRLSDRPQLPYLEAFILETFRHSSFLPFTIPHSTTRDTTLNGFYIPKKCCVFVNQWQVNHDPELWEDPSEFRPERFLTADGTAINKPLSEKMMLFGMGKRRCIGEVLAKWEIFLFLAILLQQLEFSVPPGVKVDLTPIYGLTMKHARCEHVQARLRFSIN
Kind of assay: CYP inhibition test, human liver microsomes, CYP1A2. On the procedure:
(§1) • 1. Test purpose: to evaluate the inhibitory ability of some of the example compounds of the present invention against CYP1A2, 2B6, 2C8, 2C9, 2C19, 2D6 and 3A4 via human liver microsomes. • 2. […] Test method:
(§2) • 1. K/Mg buffer: the components were 0.1 mol/L potassium phosphate and 5 mmol/L magnesium chloride with pH 7.4±0.1, preheated. • 2. Solution of the test compound: the test compound was dissolved in dimethyl sulfoxide to prepare a stock solution of 10 mmol/L. 8 μL of 10 mmol/L stock solution was transferred to a 96-well plate containing 12 μL of acetonitrile as the highest concentration point, at 3-fold dilution, for 8 concentrations. • 3. NADPH solution: 66.7 mg of NADPH was dissolved in 10 mL of 0.1 mol/L K/Mg buffer to obtain 8 mmol/L NADPH solution with pH 7.4. • 4. Human liver microsomal stock solution: human liver microsomes were dissolved in 0.1 mol/L K/Mg buffer to obtain 20 mg/mL stock solution. • 5. Human liver microsomal working solution: 10 μL of 20 mg/mL human liver microsomal stock solution was taken and added into 990 μL of 0.1 mol/L K/Mg buffer to prepare 0.2 mg/mL human liver microsomal solution. • 6. […]
Background: Liver microsomes are a subcellular fraction often used to study metabolism.

Another assay deals with CYP 2C9 (Homo sapiens, UniProt P11712). The assay can be described thus: CYP inhibition test, human liver microsomes, CYP2C9. The method, then: as §1, §2
Another assay concerns the target CYP 2D6 (Homo sapiens, UniProt P10635). Kind of assay: CYP inhibition test, human liver microsomes, CYP2D6. On the procedure: as §1
• 1. K/Mg buffer: the components were 0.1 mol/L potassium phosphate and 5 mmol/L magnesium chloride with pH 7.4±0.1, preheated. • 2. Solution of the test compound: the test compound was dissolved in dimethyl sulfoxide to prepare a stock solution of 10 mmol/L. 8 μL of 10 mmol/L stock solution was transferred to a 96-well plate containing 12 μL of acetonitrile as the highest concentration point, at 3-fold dilution, for 8 concentrations. • 3. […] Human liver microsomal stock solution: human liver microsomes were dissolved in 0.1 mol/L K/Mg buffer to obtain 20 mg/mL stock solution. • 5. Human liver microsomal working solution: 10 μL of 20 mg/mL human liver microsomal stock solution was taken and added into 990 μL of 0.1 mol/L K/Mg buffer to prepare 0.2 mg/mL human liver microsomal solution. • 6.
600 μL of 0.2 mg/mL human liver microsomal solution and 3 μL of stepwise diluted test compound solution were added to the 96-well plate. 30 μL of the above solution was added on the 96-well plate followed by the addition of 15 μL of the corresponding substrate solution. […]

Chain of CYP 2C9 (P11712 whole entry): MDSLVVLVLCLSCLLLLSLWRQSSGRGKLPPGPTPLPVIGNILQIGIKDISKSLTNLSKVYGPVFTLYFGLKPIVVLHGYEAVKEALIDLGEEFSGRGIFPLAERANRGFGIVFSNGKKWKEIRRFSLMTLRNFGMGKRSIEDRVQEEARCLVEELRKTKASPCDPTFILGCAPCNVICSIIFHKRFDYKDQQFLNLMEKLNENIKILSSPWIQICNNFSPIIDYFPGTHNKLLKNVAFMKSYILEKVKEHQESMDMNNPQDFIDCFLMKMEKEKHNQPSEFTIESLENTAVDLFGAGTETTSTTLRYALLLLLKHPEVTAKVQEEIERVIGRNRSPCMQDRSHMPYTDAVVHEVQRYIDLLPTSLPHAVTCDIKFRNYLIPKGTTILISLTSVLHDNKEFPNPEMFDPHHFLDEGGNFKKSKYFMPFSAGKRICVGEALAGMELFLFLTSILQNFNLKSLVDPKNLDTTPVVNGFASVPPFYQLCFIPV
Chain of CYP 2D6 (P10635 whole entry): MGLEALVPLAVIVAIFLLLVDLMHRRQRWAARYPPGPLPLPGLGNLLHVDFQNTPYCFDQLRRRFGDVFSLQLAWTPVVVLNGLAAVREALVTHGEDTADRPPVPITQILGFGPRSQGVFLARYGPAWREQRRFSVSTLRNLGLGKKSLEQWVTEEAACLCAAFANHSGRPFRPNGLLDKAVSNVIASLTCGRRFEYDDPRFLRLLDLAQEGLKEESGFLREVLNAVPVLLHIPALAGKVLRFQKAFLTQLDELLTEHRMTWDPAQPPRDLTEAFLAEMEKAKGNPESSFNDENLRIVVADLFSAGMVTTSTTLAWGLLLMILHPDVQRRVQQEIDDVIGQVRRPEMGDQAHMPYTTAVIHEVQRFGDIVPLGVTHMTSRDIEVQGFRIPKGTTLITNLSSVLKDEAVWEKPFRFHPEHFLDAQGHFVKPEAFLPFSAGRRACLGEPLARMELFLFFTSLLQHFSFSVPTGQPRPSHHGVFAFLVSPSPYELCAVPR

Usually IC50 stands for the concentration that gives 50% inhibition. A high value points to weaker potency in that assay. In the case of `C=CC(=O)N1CCN(c2nc(=O)n(-c3c(C)ccnc3C(C)C)c3nc(-c4c(O)cccc4F)c(F)cc23)[C@@H](C)C1` [AMG510], the half-maximal inhibitory concentration (IC50) against CYP1A2 is > 10 µM; at CYP 2C9, > 10000 nM; at CYP 2D6, > 10 µM.

In the case of `C=C(F)C(=O)N1CCN(c2nc(OC[C@@H]3CCCN3C)nc3c2CCN(c2cccc4cccc(Cl)c24)C3)C[C@@H]1CC#N` [MRTX849], the IC50 was > 10 µM on CYP1A2, 1350 nM at CYP 2C9 and 9.72 µM on CYP 2D6.
